{"source": "patent US12465630B2", "about": "“Small peptide compositions and uses thereof” (University of Pittsburgh—Of the Commonwealth System of …, priority 2018, dated 2025)", "key": {"cardiac fibroblasts [1]": {"test_system": "cardiac fibroblasts", "experiment": "Motility (scratch) assay, cardiac fibroblasts", "format": "cell-based, mouse", "description": "(§1) Primary cardiac fibroblasts and cardiomyocytes were isolated from both wild-type and CXCR3−/− neonatal mouse pups. After washing in PBS, hearts were stirred for 5 minutes in 0.5% trypsin at 37° C. to dissociate cells into solution. The suspended cells were then transferred to DMEM containing 20% fetal bovine serum (FBS) on ice to inactivate trypsin activity, and dissociation was repeated twice more with fresh trypsin solution. Cells were then washed and plated into 6-well plates at 1.25×10^6 cells/well, suspended in cardiac cell media (DMEM containing 7.5% dialyzed FBS and 1% antibiotic/antimitotic solution). After three hours, adhered fibroblasts were separated from the unattached cardiomyocytes through resuspension of the cells, and cardiomyocytes were plated separately at a density of 5×10^5 cells/ml.\n(§2) To determine the effect of IP-10p on TGFβ1-induced cell migration, motility assays were performed on cardiac fibroblasts, cardiomyocytes, and co-cultures (2:1 ratio of cardiomyocytes to fibroblasts). Cells were plated at 2.5×10^5 cells/well in a 12-well uncoated plate in depleted media (DMEM containing 0.5% FBS) 24 hours before beginning the experiment. A pipette tip was used to create a scratch in the monolayer and the plate was washed twice with PBS to remove scraped cells. Cells were then treated with TGFβ1 (R&D Systems, Minneapolis, MN) alone (10 ng/mL) to stimulate fibrosis, CXCL10 alone (10 μM), IP-10p alone (10 μM), TGFβ1+CXCL10, TGFβ1+IP-10p, or left untreated. Images were taken immediately after scratching and 24 hours later, and Adobe Photoshop was used to quantify wound motility as distance between wound edges relative to the initial scratch width."}, "[2]": {"test_system": "CXCR3−/− co-cultures of cardiac fibroblasts and cardiomyocytes", "experiment": "Myofibroblast differentiation and ECM in CXCR3−/− co-cultures", "format": "cell-based, mouse", "conditions": "CXCR3−/− cells, TGFβ1", "description": "as §1\n(§3) Fibroblast activation to myofibroblasts is marked by αSMA expression within the cytoskeleton and serves as a marker to induce fibrosis. Cardiac fibroblasts were plated at 2,000 cells/well in an 8-well chamber slide and allowed to adhere overnight. After 24 hours, cells were washed and treated with: TGFβ1 alone (10 ng/ml), CXCL10 alone (10 μM), IP-10p alone (10 μM), TGFβ1+CXCL10, TGFβ1+IP-10p, or left untreated. After 24 hours, cells were fixed in ice cold methanol for 10 minutes and stained for αSMA (1:200, Abcam ab5694, Cambridge, UK) at 4° C. overnight, followed by a goat-anti-rabbit Alexa Fluor 594-conjugated secondary antibody (Abcam ab150080). After counterstaining with DAPI, cells were imaged, and fibroblast activation was measured using corrected total cell fluorescence (CTCF). These measurements were also performed in co-cultures of cardiomyocytes and cardiac fibroblasts (2:1 ratio)\nCardiac fibrosis is marked by overproduction of ECM proteins following injury. […] Expression of these molecules is expressed at CTCF and was quantified using MetaMorph® (Molecular Devices, Sunnyvale, CA).\nIn addition to cell motility, myofibroblast differentiation in CXCR3−/− cells in response to IP-10p was assessed. […]"}, "CXCR3": {"molecular_target": "T1, CXCR3 (Homo sapiens, UniProt P49682)", "T1 sequence (P49682 1-415 isoform P49682-2)": "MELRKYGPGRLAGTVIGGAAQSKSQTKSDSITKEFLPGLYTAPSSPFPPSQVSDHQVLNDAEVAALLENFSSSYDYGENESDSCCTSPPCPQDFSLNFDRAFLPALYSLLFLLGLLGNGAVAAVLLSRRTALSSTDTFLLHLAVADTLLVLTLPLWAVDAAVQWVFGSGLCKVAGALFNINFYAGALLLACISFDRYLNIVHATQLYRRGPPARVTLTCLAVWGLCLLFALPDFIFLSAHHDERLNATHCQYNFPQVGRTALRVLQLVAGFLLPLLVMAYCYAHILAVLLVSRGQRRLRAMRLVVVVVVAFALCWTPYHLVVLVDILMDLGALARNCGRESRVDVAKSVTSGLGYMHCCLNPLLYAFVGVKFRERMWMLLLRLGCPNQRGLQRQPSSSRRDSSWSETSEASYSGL", "conditions": "cited from earlier work"}, "[3]": {"test_system": "co-cultures of cardiomyocytes and cardiac fibroblasts", "experiment": "Motility (scratch) assay, co-cultures", "format": "cell-based, mouse", "conditions": "co-culture 2:1 cardiomyocytes to fibroblasts; FIG. 1C; listed as IP-10 Peptide", "description": "as §1\nTo determine the effect of IP-10p on TGFβ1-induced cell migration, motility assays were performed on cardiac fibroblasts, cardiomyocytes, and co-cultures (2:1 ratio of cardiomyocytes to fibroblasts). Cells were plated at 2.5×10^5 cells/well in a 12-well uncoated plate in depleted media (DMEM containing 0.5% FBS) 24 hours before beginning the experiment. […] Images were taken immediately after scratching and 24 hours later, and Adobe Photoshop was used to quantify wound motility as distance between wound edges relative to the initial scratch width."}, "[4]": {"test_system": "co-cultures of cardiomyocytes and cardiac fibroblasts", "experiment": "Fibrotic extracellular matrix (ECM) secretion, co-cultures", "format": "cell-based, mouse", "conditions": "48 h", "description": "as §1\nCardiac fibrosis is marked by overproduction of ECM proteins following injury. To observe the effect of IP-10p on secretion of these molecules, co-cultures of cardiomyocytes and cardiac fibroblasts were used to account for […] signaling taking place between the two dominant cell types in the heart. Fibroblasts and myocytes were plated at a 2:1 ratio using the same culture conditions and treatment groups described above for fibroblast activation. Following a 48-hour incubation with their respective treatments, cells were fixed, permeabilized and stained. Antibodies for collagen α1 type 1 (1:250, Santa Cruz Biotechnology SC8784, Dallas, TX), fibronectin (1:250, Abcam ab2413), and tenascin C (1:200, Abcam ab6346), followed by their appropriate secondary antibodies (Abcam ab150132, ab150077, and 150153, respectively), were used to determine fibrotic ECM secretion from the co-cultures. Expression of these molecules is expressed at CTCF and was quantified using MetaMorph® (Molecular Devices, Sunnyvale, CA)."}, "cardiac fibroblasts [5]": {"test_system": "cardiac fibroblasts", "experiment": "Fibroblast activation assay (αSMA), cardiac fibroblasts", "format": "cell-based, mouse", "description": "as §1, §3"}, "cardiomyocytes": {"test_system": "cardiomyocytes", "experiment": "Motility (scratch) assay, cardiomyocytes", "format": "cell-based, mouse", "conditions": "TGFβ1 10 ng/mL + agent 10 μM, 24 h, FIG. 1A", "description": "as §1, §2"}, "[6]": {"conditions": "agent alone vs unstimulated cultures"}}}
{"sequence": "PESKAIKNLLKAVSKEMSKRSP [IP-10p, 22-amino acid CXCL10 peptide spanning the C-terminal residues (77-98) of IP-10, the alpha-helical region]", "values": [{"measurement": "motility of cardiac fibroblasts, agent alone", "setting": "cardiac fibroblasts [1]; 10 μM alone, 24 h, compared to control", "result": "not altered"}, {"measurement": "migration following TGF-β induction in cardiac fibroblasts", "setting": "cardiac fibroblasts [1]; FIG. 1B", "result": "inhibit migration"}, {"measurement": "reduction of motility of TGFβ1-treated fibroblasts", "setting": "cardiac fibroblasts [1]; TGFβ1 10 ng/mL + agent 10 μM, 24 h", "result": "over 40%"}, {"measurement": "expression of αSMA in CXCR3−/− co-cultures", "setting": "[2]", "result": "inhibiting expression"}, {"measurement": "upregulation of collagen I in CXCR3−/− co-cultures", "setting": "[2]", "result": "inhibited upregulation"}, {"measurement": "upregulation of fibronectin in CXCR3−/− co-cultures", "setting": "[2]", "result": "inhibited upregulation"}, {"measurement": "activation of the CXCR3B isoform", "setting": "CXCR3; PCT Publication Nos. WO 2013/032853 and WO 2015/112505", "result": "activates the CXCR3B isoform"}, {"measurement": "competition for binding and activation of CXCR3", "setting": "CXCR3; compared with whole CXCL10", "result": "competes for binding and activation of CXCR3 in an equimolar manner to whole CXCL10"}, {"measurement": "cellular migration in TGF-β induced co-cultures", "setting": "[3]", "result": "inhibits cellular migration"}, {"measurement": "collagen expression in the presence of TGFβ1", "setting": "[4]; TGFβ1 10 ng/mL + agent 10 μM", "result": "reduced expression of both these proteins to baseline levels"}, {"measurement": "fibronectin expression in the presence of TGFβ1", "setting": "[4]; TGFβ1 10 ng/mL + agent 10 μM", "result": "reduced expression of both these proteins to baseline levels"}, {"measurement": "collagen secretion, agent alone", "setting": "[4]; [6]", "result": "reduced collagen and fibronectin secretion"}, {"measurement": "fibronectin secretion, agent alone", "setting": "[4]; [6]", "result": "reduced collagen and fibronectin secretion"}, {"measurement": "reduction of activation of fibroblasts (αSMA) compared to the untreated control", "setting": "cardiac fibroblasts [5]; IP-10p alone 10 μM, 24 h", "result": 33, "unit": "%"}, {"measurement": "αSMA expression in the presence of TGFβ1", "setting": "cardiac fibroblasts [5]; TGFβ1 10 ng/mL + IP-10p 10 μM vs TGFβ1 alone", "result": "reduced αSMA expression"}, {"measurement": "cardiomyocyte motility in the presence of TGFβ1", "setting": "cardiomyocytes", "result": "completely inhibited"}, {"measurement": "cardiomyocyte motility in the presence of TGFβ1", "setting": "cardiomyocytes; listed as IP-10 Peptide", "result": "inhibit migration"}]}
